Structures can show the parent of a compound that is named as a salt.

The target in one test is T1, DPP-IV (Homo sapiens, UniProt P27487).
T1 construct: purchased Enzyme Systems Products SPE-01
T1 sequence (P27487 whole entry, species assumed): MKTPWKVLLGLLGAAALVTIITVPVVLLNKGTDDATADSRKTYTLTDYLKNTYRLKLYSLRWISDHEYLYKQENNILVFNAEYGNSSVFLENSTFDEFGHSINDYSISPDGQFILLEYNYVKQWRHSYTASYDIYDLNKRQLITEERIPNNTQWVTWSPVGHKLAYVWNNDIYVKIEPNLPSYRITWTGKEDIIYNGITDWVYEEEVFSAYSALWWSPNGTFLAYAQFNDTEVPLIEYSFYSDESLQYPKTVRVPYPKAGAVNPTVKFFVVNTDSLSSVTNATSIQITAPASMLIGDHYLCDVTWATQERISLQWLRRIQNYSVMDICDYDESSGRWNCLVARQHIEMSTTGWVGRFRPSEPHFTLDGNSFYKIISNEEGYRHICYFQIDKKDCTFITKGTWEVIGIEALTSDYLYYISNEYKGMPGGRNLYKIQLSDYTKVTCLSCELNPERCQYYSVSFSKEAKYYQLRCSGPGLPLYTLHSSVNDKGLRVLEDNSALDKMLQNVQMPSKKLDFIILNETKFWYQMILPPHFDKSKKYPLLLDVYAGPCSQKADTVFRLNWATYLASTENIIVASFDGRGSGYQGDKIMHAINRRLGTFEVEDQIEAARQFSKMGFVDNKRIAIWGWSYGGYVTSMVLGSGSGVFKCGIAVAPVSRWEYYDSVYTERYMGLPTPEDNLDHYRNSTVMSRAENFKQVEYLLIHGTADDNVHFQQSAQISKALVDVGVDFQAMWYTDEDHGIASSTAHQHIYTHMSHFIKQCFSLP
Kind of test: In vitro assay for dipeptidyl peptidase inhibition. The settings on record: Examples 156-162; n-value in brackets; IC50's or percent inhibition at 300 nM; read-out: DPP-IV inhibition. In kind it is biochemical.
On to `N[C@H]1CN(C(=O)c2cc3ccccc3o2)C[C@@H]1N1CCCCC1=O` [Example 156, 1-[(3S,4S)-4-Amino-1-(benzofuran-2-carbonyl)-pyrrolidin-3-yl]-piperidin-2-one hydrochloride], for which the IC50 is 187 nM.

As to `N[C@H]1CN(C(=O)c2cc3cc(Cl)ccc3o2)C[C@@H]1N1CCCCC1=O` [Example 157, 1-((3S,4S)-4-amino-1-(5-chlorobenzofuran-2-carbonyl)pyrrolidin-3-yl)piperidin-2-onetrifluoroacetate], the IC50 amounted to 212 nM.

As for `N[C@H]1CN(C(=O)c2cc3ccc(Cl)cc3o2)C[C@@H]1N1CCCCC1=O` [Example 158, 1-((3S,4S)-4-amino-1-(6-chlorobenzofuran-2-carbonyl)pyrrolidin-3-yl)piperidin-2-onetrifluoroacetate], the IC50 amounted to 231 nM.

For the molecule `COc1ccc2oc(C(=O)N3C[C@H](N)[C@@H](N4CCCCC4=O)C3)cc2c1` [Example 159, 1-[(3S,4S)-4-Amino-1-(5-methoxy-benzofuran-2-carbonyl)-pyrrolidin-3-yl]-piperidin-2-onehydrochloride], the IC50 was found to be 79.3 nM.

Regarding `N[C@H]1CN(C(=O)c2cc3ccccc3s2)C[C@@H]1N1CCCCC1=O` [Example 160, 1-[(3S,4S)-4-Amino-1-(benzo[b]thiophene-2-carbonyl)-pyrrolidin-3-yl]-piperidin-2-onehydrochloride], the IC50 turned out to be 317 nM.

As to `N[C@H]1CN(C(=O)c2cc3cc(Cl)ccc3[nH]2)C[C@@H]1N1CCCCC1=O` [Example 161, 1-[(3S,4S)-4-Amino-1-(5-chloro-1H-indole-2-carbonyl)-pyrrolidin-3-yl]-piperidin-2-onehydrochloride], the IC50 is 1160 nM.

Staying with this test, now noted: at 300 nM; n-value given in brackets.
As for `N[C@H]1CN(c2ncnc3cc(OS(=O)(=O)c4ccc(F)cc4)ccc23)C[C@@H]1N1CCCCC1=O` [Example 142, 4-Fluoro-benzenesulfonic acid 4-[(3S,4S)-3-amino-4-(2-oxo-piperidin-1-yl)-pyrrolidin-1-yl]-quinazolin-7-ylester], the “DPP-IV Percent Inhibition at 300 nM” value is given as 47/3%(4).

The same test, now with this note: at 300 nM; n-value given in brackets; read-out: DPP-IV Percent Inhibition at 300 nM.
The inhibition is the relative decrease from the control value, in per cent. On to `CC(C)S(=O)(=O)c1ccc2c(N3C[C@H](N)[C@@H](N4CCCCC4=O)C3)ncnc2c1` [Example 138, 1-((3S,4S)-4-amino-1-(7-(isopropylsulfonyl)quinazolin-4-yl)pyrrolidin-3-yl)piperidin-2-one trifluoroacetate], for which the inhibition at 0.3 µM stood at 24.1%.

As for `CCS(=O)(=O)c1ccc2c(N3C[C@H](N)[C@@H](N4CCCCC4=O)C3)ncnc2c1` [Example 139, 1-((3S,4S)-4-amino-1-(7-(ethylsulfonyl)quinazolin-4-yl)pyrrolidin-3-yl)piperidin-2-one], the inhibition at 0.3 µM was determined as 33.5%.

For the molecule `N[C@H]1CN(c2ncnc3cc(OS(=O)(=O)c4ccc(F)c(F)c4)ccc23)C[C@@H]1N1CCCCC1=O` [Example 144, 4-((3S,4S)-3-amino-4-(2-oxopiperidin-1-yl)pyrrolidin-1-yl)quinazolin-7-yl 3,4-difluorobenzenesulfonate], the inhibition at 0.3 µM is 41%.

Staying with this test, now noted: n-value given in brackets; read-out: DPP-IV IC50.
For the molecule `N[C@H]1CN(c2ncnc3cc(Oc4ccc(F)cc4)ccc23)C[C@@H]1N1CCCCC1=O` [Example 128, 1-((3S,4S)-4-amino-1-(7-(4-fluorophenoxy)quinazolin-4-yl)pyrrolidin-3-yl)piperidin-2-one], the IC50 turned out to be 222 nM.

Consider `COc1ccc(Oc2ccc3c(N4C[C@H](N)[C@@H](N5CCCCC5=O)C4)ncnc3c2)cc1` [Example 129, 1-((3S,4S)-4-amino-1-(7-(4-methoxyphenoxy)quinazolin-4-yl)pyrrolidin-3-yl)piperidin-2-one], for which the IC50 worked out at 61.5 nM.

For `N[C@H]1CN(c2ncnc3cc(Sc4cccc(F)c4)ccc23)C[C@@H]1N1CCCCC1=O` [Example 130, 1-((3S,4S)-4-amino-1-(7-(3-fluorophenylthio)quinazolin-4-yl)pyrrolidin-3-yl)piperidin-2-oneformate], the IC50 came to 60.5 nM.

Turning to `N[C@H]1CN(c2ncnc3cc(Oc4ccc(OC(F)(F)F)cc4)ccc23)C[C@@H]1N1CCCCC1=O` [Example 131, 1-((3S,4S)-4-amino-1-(7-(4-(trifluoromethoxy)phenoxy)quinazolin-4-yl)pyrrolidin-3-yl)piperidin-2-oneformate], the IC50 came out at 189 nM.

Consider `CSc1ccc(Sc2ccc3c(N4C[C@H](N)[C@@H](N5CCCCC5=O)C4)ncnc3c2)cc1` [Example 132], for which the IC50 was determined as 720 nM.

As to `N[C@H]1CN(c2ncnc3cc(Oc4ccc(OC(F)(F)F)cc4)ccc23)C[C@@H]1N1CCCCC1=O` [Example 133, 1-((3S,4S)-4-amino-1-(7-(4-(trifluoromethoxy)phenoxy)quinazolin-4-yl)pyrrolidin-3-yl)piperidin-2-one], the IC50 was 200 nM.

For `CCS(=O)(=O)Oc1ccc2c(N3C[C@H](N)[C@@H](N4CCCCC4=O)C3)ncnc2c1` [Example 134, 4-((3S,4S)-3-amino-4-(2-oxopiperidin-1-yl)pyrrolidin-1-yl)quinazolin-7-yl ethanesulfonate], the IC50 is 218 nM.

Take `CS(=O)(=O)Oc1ccc2c(N3C[C@H](N)[C@@H](N4CCCCC4=O)C3)ncnc2c1` [Example 135, 4-((3S,4S)-3-amino-4-(2-oxopiperidin-1-yl)pyrrolidin-1-yl)quinazolin-7-yl methanesulfonate]: the IC50 came to 128 nM.

With `CC(C)S(=O)(=O)Oc1ccc2c(N3C[C@H](N)[C@@H](N4CCCCC4=O)C3)ncnc2c1` [Example 136, 4-((3S,4S)-3-amino-4-(2-oxopiperidin-1-yl)pyrrolidin-1-yl)quinazolin-7-yl propane-2-sulfonate], the IC50 came to 135 nM.

Regarding `CC(C)Sc1ccc2c(N3C[C@H](N)[C@@H](N4CCCCC4=O)C3)ncnc2c1` [Example 137, 1-((3S,4S)-4-amino-1-(7-(isopropylthio)quinazolin-4-yl)pyrrolidin-3-yl)piperidin-2-one], the IC50 stood at 116 nM.

Regarding `CCSc1ccc2c(N3C[C@H](N)[C@@H](N4CCCCC4=O)C3)ncnc2c1` [Example 140, 1-((3S,4S)-4-amino-1-(7-(ethylthio)quinazolin-4-yl)pyrrolidin-3-yl)piperidin-2-one], the IC50 amounted to 55 nM.

As to `CS(=O)(=O)c1ccc(S(=O)(=O)Oc2ccc3c(N4C[C@H](N)[C@@H](N5CCCCC5=O)C4)ncnc3c2)cc1` [Example 141, 4-((3S,4S)-3-amino-4-(2-oxopiperidin-1-yl)pyrrolidin-1-yl)quinazolin-7-yl 4-(methylsulfonyl)benzenesulfonate], the IC50 was determined as 278 nM.

With `N[C@H]1CN(c2ncnc3cc(OS(=O)(=O)c4ccc(F)cc4F)ccc23)C[C@@H]1N1CCCCC1=O` [Example 143, 4-((3S,4S)-3-amino-4-(2-oxopiperidin-1-yl)pyrrolidin-1-yl)quinazolin-7-yl 2,4-difluorobenzenesulfonate], the IC50 amounted to 280 nM.

On to `N[C@H]1CN(c2nncc3ccccc23)C[C@@H]1N1CCCCC1=O` [Example 145, 1-((3S,4S)-4-amino-1-(phthalazin-1-yl)pyrrolidin-3-yl)piperidin-2-one trifluoroacetate], for which the IC50 amounted to 224 nM.

Consider `COc1ccc2c(N3C[C@H](N)[C@@H](N4CCCCC4=O)C3)nncc2c1` [Example 146, 1-((3S,4S)-4-amino-1-(6-methoxyphthalazin-1-yl)pyrrolidin-3-yl)piperidin-2-one], for which the IC50 was 46.2 nM.

Consider `COc1nc(OC)nc(N2C[C@H](N)[C@@H](N3CCCCC3=O)C2)n1` [Example 147, 1-[(3S,4S)-4-Amino-1-(4,6-dimethoxy-[1,3,5]triazin-2-yl)-pyrrolidin-3-yl]-piperidin-2-onetrifluoroacetate], for which the IC50 was 133 nM.

As to `N[C@H]1CN(c2ncnc3[nH]cnc23)C[C@@H]1N1CCCCC1=O` [Example 148, 1-[(3S,4S)-4-Amino-1-(9H-purin-6-yl)-pyrrolidin-3-yl]-piperidin-2-one hydrochloride], the IC50 worked out at 415 nM.

For the molecule `N[C@H]1CN(c2ncnc3c2ncn3CC(F)(F)F)C[C@@H]1N1CCCCC1=O` [Example 149, 1-{(2S,4S)-4-Amino-1-[9-(2,2,2-trifluoro-ethyl)-9H-purin-6-yl]-pyrrolidin-3-yl}-piperidin-2-onehydrochloride], the IC50 was 497 nM.

On to `N[C@H]1CN(c2ncnc3c2ncn3C2CC2)C[C@@H]1N1CCCCC1=O` [Example 150, 1-[(3S,4S)-4-Amino-1-(9-cyclopropyl-9H-purin-6-yl)-pyrrolidin-3-yl]-piperidin-2-one hydrochloride], for which the IC50 stood at 189 nM.

Take `N[C@H]1CN(c2ncnc3c2ncn3C2CC2)C[C@@H]1N1CCCC1=O` [Example 151, 1-((3S,4S)-4-Amino-1-(9-cyclopropyl-9H-purin-6-yl)pyrrolidin-3-yl)pyrrolidin-2-one hydrochloride]: the IC50 is above 3000 nM.

With `COc1ccc(Cl)c2c(N3C[C@H](N)[C@@H](N4CCCCC4=O)C3)ncnc12` [Example 152, 1-((3S,4S)-4-amino-1-(5-chloro-8-methoxyquinazolin-4-yl)pyrrolidin-3-yl)piperidin-2-one trifluoroacetate], the IC50 is above 30000 nM.

For `N[C@H]1CN(C(=O)c2cc3cc(Cl)ccc3o2)C[C@@H]1N1CC(F)(F)CCC1=O` [Example 153, 1-((3S,4S)-4-amino-1-(5-chlorobenzofuran-2-carbonyl)pyrrolidin-3-yl)-5,5-difluoropiperidin-2-one], the IC50 is 78.6 nM.

With `N[C@H]1CN(C(=O)c2cc3cc(Cl)ccc3o2)C[C@@H]1N1CCCCC1=O` [Example 154, 1-[(3S,4S)-4-Amino-1-[(5-chloro-1-benzofuran-2-yl)carbonyl]-pyrrolidin-3-yl]-piperidin-2-one hydrochloride], the IC50 stood at 92.3 nM.

Regarding `COc1ccc2oc(C(=O)N3C[C@H](N)[C@@H](N4CC(F)(F)CCC4=O)C3)cc2c1` [Example 155, 1-((3S,4S)-4-amino-1-(5-methoxybenzofuran-2-carbonyl)pyrrolidin-3-yl)-5,5-difluoropiperidin-2-one], the IC50 amounted to 102 nM.

Source of the values: patent publication US7485641B2, “Substituted 3-amino-pyrrolidino-4-lactams” (Pfizer, Inc., priority 2006, dated 2009).
